Legend:
Chlamydia pneumoniae = test: Antibiotic susceptibility test in HL cells (MIC, no inclusions detected); type: cell-based; conditions: 72 h
Description: (§1) For Chlamydia trachomatis isolation McCoy cells were used and for Chlamydia pneumoniae—HL cells.
(§2) Cells of each cell line were seeded into 24-well cell culture plates (approximately 2×10^5 cells per well) with cover-slips and incubated at 37° C. for 24 h to achieve monolayer confluence.
(§3) 1 ml of serum was centrifuged at 14,000×g for 1 h at 4° C. to sediment bacterial cells. Supernatant was discarded and pellet was suspended in 0.5 ml of GM (growth medium: RPMI, 5% [vol/vol] fetal calf serum, 2.0 mM L-glutamine, 8.8% [vol/vol] glucose, 4.0 μg of gentamicin per ml and 5.0 of amfotherycin B/ml). The cell monolayers were inoculated with the suspensions and centrifuged at 2,500×g for an hour at 20 °C. The infected cells were incubated for 2 h at 37° C.; after that, the medium was removed and replaced by GM with cycloheximide (1.0 μg/ml). The cells were incubated at 37° C. in 4% CO2 for 72 h.
(§4) The cells on the cover-slips were fixed with acetone and stained with a fluorescein isothiocyanate (FITC)-labeled Chlamydia genus-specific (anti-LPS) and Chlamydia trachomatis-specific (anti-MOMP) antibodies. Chlamydia inclusions were detected by fluorescent microscopy.
(§5) McCoy and HL cells were seeded and inoculated with serum samples as described above but after centrifugation at 2,500×g for an hour and incubation for 2 h at 37° C. the infected cells were overlaid with the growth medium containing serial twofold dilutions of the antibiotic (Azithromycin, Pliva) at concentration range from 0.05 to 0.8 μg/ml and incubated at 37° C. in 4% CO2 for 72 h. Chlamydia trachomatis L-2 and Chlamydia pneumoniae Kajaani 6 strains were used as reference strains. The MIC was defined as the lowest concentration at which no inclusions were detected.

Chlamydia trachomatis = test: Antibiotic susceptibility test in McCoy cells (MIC, no inclusions detected); type: cell-based; conditions: 72 h
Description: as §1, §2, §3, §4, §5

Structure (SMILES): CC[C@H]1OC(=O)[C@H](C)[C@@H](O[C@H]2C[C@@](C)(OC)[C@@H](O)[C@H](C)O2)[C@H](C)[C@@H](O[C@@H]2O[C@H](C)C[C@H](N(C)C)[C@H]2O)[C@](C)(O)C[C@@H](C)CN(C)[C@H](C)[C@@H](O)[C@]1(C)O [Azithromycin]
- Range of anti-microbial concentration (Chlamydia pneumoniae; Chlamydia pneumoniae isolated from serum of Patient C): >0.4 µg/mL
- Range of anti-microbial concentration (Chlamydia pneumoniae; Chlamydia pneumoniae isolated from serum of Patient D): >0.4 µg/mL
- Range of anti-microbial concentration (Chlamydia pneumoniae; Chlamydia pneumoniae reference strain Kajaani 6): >0.05 µg/mL
- Range of anti-microbial concentration (Chlamydia trachomatis; Chlamydia trachomatis isolated from serum of Patient A): >0.4 µg/mL
- Range of anti-microbial concentration (Chlamydia trachomatis; Chlamydia trachomatis isolated from serum of Patient B): >0.4 µg/mL
- Range of anti-microbial concentration (Chlamydia trachomatis; Chlamydia trachomatis reference strain L-2, tested range 0.05 to 0.8 μg/ml): >0.1 µg/mL
